This passage reports IC50 results from patent US20250304549A1, “HYDROXYAMIDE DERIVATIVE AND USE THEREOF” (SICHUAN HUIYU PHARMACEUTICAL CO., LTD., priority 2022, published 2025).

The term IC50 denotes the concentration needed to halve the response being measured.

One assay has as its target LSD1 (Homo sapiens (Human), UniProt O60341). As to the kind of experiment: In vitro enzyme inhibition assay - LSD1 (HTRF). It counts as biochemical.
The next assay deals with pan-HDAC. Put plainly: In vitro enzyme inhibition assay - HDAC (HDAC-Glo I/II), pan-HDAC. It counts as biochemical. In a few lines: (§1)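 Inhibition was measured with the HDAC-Glo I/II luminescent assay, testing compound as an 8-point, 5-fold dilution series from a 1 mM DMSO stock. Luminescence (RLU) was normalized to no-inhibitor and no-enzyme controls, and IC50 was derived by four-parameter variable-slope fitting.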

Another assay relates to NCI-H1417 cells. Put plainly: In vitro cell inhibition assay - H1417 cell proliferation (CellTiter-Glo). Type of assay: cell-based. In a few lines: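 Cells exposed to 8 compound concentrations (5-fold dilutions) in BEGM with 10% FBS for 7 days at 37° C., 5% CO2. Viable cells measured by CellTiter-Glo luminescence; inhibition versus no-inhibitor and no-cell controls, IC50 fitted.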
On the technique in general: In ATP-based viability assays light output follows the ATP content of the culture.

For another assay, the system named is NCI-H69 cells. Put plainly: In vitro cell inhibition assay - NCI-H69 cell proliferation (CellTiter-Glo). Type of assay: cell-based. In a few lines:
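Over 7 days at 37° C. and 5% CO2, cells grew in RPMI-640 supplemented with 20% FBS in the presence of eight 5-fold-spaced compound concentrations.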

A further assay deals with DU145 cells. As to the kind of experiment: In vitro cell inhibition assay - DU145 cell proliferation (CellTiter-Glo). It counts as cell-based. The protocol: 5. In Vitro Cell Inhibition Assay—DU145 Cell Proliferation
The inhibitory effect of the compounds on cell proliferation was assessed by detecting the number of viable cells using the CellTiter-Glo® reagent. DU145 cells in the logarithmic growth phase were collected and inoculated into transparent bottom 96-well plates at a density 1×10^3 cells per well with 100 μL medium, and incubated at 37° C., 5% CO2 overnight. The compounds were sequentially diluted in a 5-fold concentration gradient with DMSO to obtain 8 different concentrations. These were then diluted with RPMI-640 (containing 10% FBS) cell culture medium to obtain the compound working solution (2×), which was added to the cell supernatant at 100 μL per well. The incubation continued for 6 days at 37° C., 5% CO2. The plate was then removed and equilibrated at room temperature (25° C.) along with the CellTiter-Glo® mixing reagent for 10-30 minutes. After centrifugation, 120 μL of the culture medium was carefully aspirated from each well, and 60 μL of CellTiter-Glo® reagent was added. The cells were thoroughly mixed with the CellTiter-Glo® mixing reagent using a microplate shaker for 2 min. and then incubated at room temperature for 10 min. The 96-well plate was subsequently placed on a multifunctional microplate reader to record the Luminescence values (RLU).
The inhibition rate was calculated using the following formula: […]
Note: ‘Negative’ refers to the group without inhibitors; ‘Blank’ refers to the group without cells.
The IC50 value was determined by fitting the inhibition rate by GraphPad Prism software.

Another assay addresses HDAC8 (Homo sapiens (Human), UniProt Q9BY41). Put plainly: In vitro enzyme inhibition assay - HDAC (HDAC-Glo I/II), HDAC8. Type of assay: biochemical. The settings on record: read-out: HDAC IC50 (nM) HDAC 8. In a few lines: as §1
Where [1] appears, read: Homo sapiens, NCI-H1417, H1417 small cell lung cancer cell proliferation.
The mark [2] stands for this setting: Homo sapiens, NCI-H69, H69 small cell lung cancer cell proliferation.
Where [3] appears, read: Homo sapiens, DU-145, Du145 prostate cancer cell proliferation.
The mark [4] stands for this setting: H1417 small cell lung cancer cell proliferation.
The mark [5] stands for this setting: H69 small cell lung cancer cell proliferation.
[6] abbreviates: Du145 prostate cancer cell proliferation.

Where a name gives a salt, the structure may show the parent alone.

Sequence of HDAC8 (Q9BY41 whole entry): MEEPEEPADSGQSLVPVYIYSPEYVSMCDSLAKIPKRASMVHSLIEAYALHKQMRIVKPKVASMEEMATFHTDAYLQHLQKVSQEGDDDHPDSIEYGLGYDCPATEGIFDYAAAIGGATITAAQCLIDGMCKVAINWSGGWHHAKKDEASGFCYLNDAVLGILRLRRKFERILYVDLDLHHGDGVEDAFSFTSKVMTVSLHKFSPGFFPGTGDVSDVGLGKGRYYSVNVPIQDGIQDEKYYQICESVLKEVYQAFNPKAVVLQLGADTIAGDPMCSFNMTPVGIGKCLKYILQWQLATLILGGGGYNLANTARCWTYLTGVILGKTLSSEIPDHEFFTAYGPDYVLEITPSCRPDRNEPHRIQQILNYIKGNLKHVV

Consider `Cc1ccc(-c2c(OCCCCCCC(=O)NO)cc(N3CCC(N)CC3)nc2-c2ccc(C#N)c(F)c2)cc1` [Example 7, 7-[(6-(4-Aminopiperidin-1-yl)-2-(4-cyano-3-fluorophenyl)-3-(4-methylphenyl)pyridin-4-yl)oxy]-N-hydroxyheptanamide-hydrochloride], for which the IC50 against LSD1 stood at 36 nM; on pan-HDAC it was 41.3 nM; in the assay with NCI-H1417 cells (setting [1]) it was 762 nM; in the assay on NCI-H69 cells (setting [2]), 2540 nM; in the assay with DU145 cells (setting [3]), 2960 nM.

Take `COc1ccc(-c2c(OCCCCCCC(=O)NO)cc(N3CCC(N)CC3)nc2-c2ccc(C#N)c(F)c2)cc1` [Example 8, 7-[(6-(4-Aminopiperidin-1-yl)-2-(4-cyano-3-fluorophenyl)-3-(4-methoxyphenyl)pyridin-4-yl)oxy]-N-hydroxyheptanamide trifluoroacetate]: the IC50 was determined as 18.6 nM at LSD1; 21.7 nM at pan-HDAC; 501 nM in the assay on NCI-H1417 cells (setting [1]); 2530 nM with NCI-H69 cells (setting [2]); 2850 nM with DU145 cells (setting [3]).

Take `N#Cc1ccc(-c2nc(N3CCC(N)CC3)cc(OCCCCCCC(=O)NO)c2-c2ccc(Cl)cc2)cc1F` [Example 11, 7-((6-(4-Aminopiperidin-1-yl)-3-(4-chlorophenyl)-2-(4-cyano-3-fluorophenyl)pyridin-4-yl)oxy)-N-hydroxyheptanamide hydrochloride]: the IC50 at pan-HDAC is 116 nM; in the assay on NCI-H1417 cells (setting [1]) it was > 1000 nM; with NCI-H69 cells (setting [2]), 2360 nM; in the assay with DU145 cells (setting [3]), 2000 nM.

`CN(C)c1ncc(-c2c(OCCCCCCC(=O)NO)cc(N3CCC(N)CC3)nc2-c2ccc(C#N)c(F)c2)cn1` [Example 13, 7-((6-(4-Aminopiperidin-1-yl)-2-(4-cyano-3-fluorophenyl)-3-(2-(dimethylamino)pyrimidin-5-yl)pyridin-4-yl)oxy)-N-hydroxyheptanamide formate]: the IC50 was 1.95 nM against LSD1; 3.32 nM on pan-HDAC; 332 nM with NCI-H1417 cells (setting [1]); 775 nM with NCI-H69 cells (setting [2]); 2770 nM in the assay with DU145 cells (setting [3]).

Consider `COc1ccc(-c2c(OCCCCCCC(=O)NO)cc(N3CCC(N)CC3)nc2-c2ccc(C#N)c(C)c2)cc1O` [Example 16, 7-((6-(4-Aminopiperidin-1-yl)-2-(4-cyano-3-methylphenyl)-3-(3-hydroxy-4-methoxyphenyl)pyridin-4-yl)oxy)-N-hydroxyheptanamide hydrochloride], for which the IC50 was 33.2 nM at LSD1; 4.23 nM at pan-HDAC; > 1000 nM in the assay on NCI-H1417 cells (setting [1]); 3640 nM with NCI-H69 cells (setting [2]); 3700 nM in the assay with DU145 cells (setting [3]).

On to `COc1ccc(-c2c(-c3ccc(C#N)c(F)c3)nc(N3CCC(NCc4ccc(/C=C/C(=O)NO)cc4)CC3)n3ccnc23)cc1O` [Example 70, (E)-3-(4-(((1-(7-(4-Cyano-3-fluorophenyl)-8-(3-hydroxy-4-methoxyphenyl)imidazo[1,2-c]pyrimidin-5-yl)piperidin-4-yl)amino)methyl)phenyl)-N-hydroxyacrylamide formate], for which the IC50 worked out at 1.18 nM at LSD1; 76.6 nM against pan-HDAC; 26.5 nM on HDAC8; 1.44 nM with NCI-H1417 cells (setting [1]); 214 nM with NCI-H69 cells (setting [2]); 262 nM in the assay with DU145 cells (setting [3]).

Regarding `COc1ccc(-c2cnc(N3CCC(NCc4ccc(/C=C/C(=O)NO)cc4)CC3)nc2-c2ccc(C#N)c(F)c2)cc1O` [Example 71, (E)-3-(4-(((1-(4-(4-cyano-3-fluorophenyl)-5-(3-hydroxy-4-methoxyphenyl)pyrimidin-2-yl)piperidin-4-yl)amino)methyl)-N-hydroxyacrylamide formate], the IC50 was 4.61 nM against LSD1; 51.8 nM on pan-HDAC; 125 nM at HDAC8; 42.3 nM in the assay on NCI-H1417 cells (setting [4]); 99 nM in the assay with NCI-H69 cells (setting [5]); 431 nM with DU145 cells (setting [6]).

Turning to `COc1ccc(-c2ccc(C(=O)N3CC[C@H](NCc4ccc(/C=C/C(=O)NO)cc4)C3)cc2-c2ccc(C#N)c(F)c2)cc1O` [Example 72, (S,E)-3-(4-(((1-(4″-cyano-3″-fluoro-3-hydroxy-4-methoxy-[1,1′:2′,1″-terphenyl]-4′-carbonylpyrrolidin-3-yl)amino)methyl)phenyl)-N-hydroxyacrylamide formate], the IC50 against LSD1 is 8.42 nM; on pan-HDAC, 110 nM; at HDAC8, 160 nM; in the assay on NCI-H1417 cells (setting [4]), 166 nM; in the assay on NCI-H69 cells (setting [5]) it was 970 nM; in the assay with DU145 cells (setting [6]), 2750 nM.

As to `COc1cc(-c2ccc(C(=O)N3CC[C@H](NCc4ccc(/C=C/C(=O)NO)cc4)C3)cc2-c2ccc(C#N)c(F)c2)ccc1O` [Example 73, (S,E)-3-(4-(((1-(4″-Cyano-3″-fluoro-4-hydroxy-3-methoxy-[1,1]: 2′,1″-terphenyl]-4′-carbonyl)pyrrolidin-3-yl)amino)methyl)phenyl)-N-hydroxyacrylamide formate], the IC50 was 21.2 nM against LSD1; 186 nM against pan-HDAC; 152 nM at HDAC8; 125 nM in the assay on NCI-H1417 cells (setting [1]); 678 nM in the assay with NCI-H69 cells (setting [2]); 2230 nM in the assay on DU145 cells (setting [3]).

As for `COc1ccc(-c2ccc(CN3CC[C@H](NCc4ccc(/C=C/C(=O)NO)cc4)C3)cc2-c2ccc(C#N)c(F)c2)cc1O` [Example 74, (S,E)-3-(4-(((1-((4″-cyano-3″-fluoro-3-hydroxy-4-methoxy-[1,1:2′,1″-terphenyl]-4′-yl)methyl)pyrrolidin-3-yl)amino)methyl)phenyl)-N-hydroxyacrylamide formate], the IC50 is 2.26 nM at LSD1; 23.1 nM against pan-HDAC; 207 nM at HDAC8; 40.1 nM with NCI-H1417 cells (setting [4]); 205 nM in the assay on NCI-H69 cells (setting [5]); 553 nM in the assay with DU145 cells (setting [6]).

As to `COc1cc(-c2ccc(CN3CC[C@H](NCc4ccc(/C=C/C(=O)NO)cc4)C3)cc2-c2ccc(C#N)c(F)c2)ccc1O` [Example 75, (S,E)-3-(4-(((1-((4″-Cyano-3″-fluoro-4-hydroxy-3-methoxy-[1,1:2,1″-terphenyl]-4′-yl)methyl)pyrrolidin-3-yl)amino)methyl)phenyl)-N-hydroxyacrylamide formate], the IC50 on LSD1 was 129 nM; on pan-HDAC it was 76.6 nM; on HDAC8, 212 nM; with NCI-H1417 cells (setting [1]), 473 nM; in the assay on NCI-H69 cells (setting [2]) it was 403 nM; in the assay with DU145 cells (setting [3]), 677 nM.

As to `Cn1nnc2cc(-c3cnc(N4CCC(NCc5ccc(/C=C/C(=O)NO)cc5)CC4)c(C#N)c3-c3ccc(C#N)c(F)c3)ccc21` [Example 141, (E)-3-(4-(((1-(3-Cyano-4-(4-cyano-3-fluorophenyl)-5-(1-methyl-1H-benzo[d][1,2,3]triazol-5-yl)pyridin-2-yl)piperidin-4-yl)amino)methyl)phenyl)-N-hydroxyacrylamide formate], the IC50 turned out to be 1.72 nM against LSD1, 31 nM in the assay on NCI-H1417 cells (setting [1]), 95.8 nM in the assay on NCI-H69 cells (setting [2]) and 129 nM in the assay with DU145 cells (setting [3]).

Consider `COc1ccc(-c2cnc(N3CCC(NCc4ccc(/C=C/C(=O)NO)cc4)CC3)c(C(F)(F)F)c2-c2ccc(C#N)c(F)c2)cc1O` [Example 147, (E)-3-(4-(4-(4-Cyano-3-fluorophenyl)-5-(3-hydroxy-4-methoxyphenyl)-3-(trifluoromethyl)pyridin-2-yl)piperidin-4-yl)amino)methyl) phenyl)-N-hydroxyacrylamide formate], for which the IC50 against LSD1 turned out to be 153 nM; in the assay with NCI-H1417 cells (setting [4]) it was 255 nM; in the assay on NCI-H69 cells (setting [5]) it was 440 nM; in the assay with DU145 cells (setting [6]), 658 nM.
